For assay [1], the target named is PEG-3 (UniProt Q6IN02). Briefly: Peg3 promoter luciferase inhibitors, potency, dose response, cell-based, HeLa, CREF/GAPDH counter-screen panel (AID 624167). The conditions noted are these: HeLa PEG-Prom luciferase reporter, overnight, CREF/GAPDH counter-screens, mean of runs. (In general: Counterscreens check selectivity or assay interference.)
Assay [2] concerns PEG-3. The assay is described as above. The note with it: HeLa PEG-Prom luciferase reporter, overnight, CREF/GAPDH counter-screens. In general terms: A reporter such as luciferase makes a cellular process visible.
The mark [3] stands for this setting: run 1, dose range 1, individual replicate IC50 per panel.
[4] abbreviates: run 2, dose range 1, individual replicate IC50 per panel.

SMILES strings stand for the structures. The source made the active and inactive calls.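 How the source made its calls: active means mean IC50 for reducing PEG3 promoter reporter signal at or below a set limit, with IC50 above the limit in both counter screens; inactive means the rest, including counter screen hits.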

PEG-3 (UniProt Q6IN02), sequence (Q6IN02 whole entry, looked up): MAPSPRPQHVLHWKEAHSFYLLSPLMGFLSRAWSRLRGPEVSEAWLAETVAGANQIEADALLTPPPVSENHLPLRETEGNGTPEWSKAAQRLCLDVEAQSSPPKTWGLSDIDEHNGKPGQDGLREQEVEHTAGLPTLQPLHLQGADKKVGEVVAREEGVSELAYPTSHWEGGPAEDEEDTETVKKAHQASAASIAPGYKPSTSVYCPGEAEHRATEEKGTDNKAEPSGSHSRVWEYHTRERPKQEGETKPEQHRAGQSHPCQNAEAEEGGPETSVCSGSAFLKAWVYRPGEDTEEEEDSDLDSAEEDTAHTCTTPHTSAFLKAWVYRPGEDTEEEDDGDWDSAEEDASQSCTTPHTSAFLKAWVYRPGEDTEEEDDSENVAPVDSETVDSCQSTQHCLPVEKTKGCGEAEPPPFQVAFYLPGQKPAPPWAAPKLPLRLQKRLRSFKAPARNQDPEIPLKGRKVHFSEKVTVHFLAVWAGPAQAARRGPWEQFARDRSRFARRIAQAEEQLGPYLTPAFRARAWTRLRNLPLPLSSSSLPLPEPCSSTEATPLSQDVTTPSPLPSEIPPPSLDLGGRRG

The term IC50 denotes the concentration needed to halve the response being measured. As for `O=C(NC1CCCCC1)Sc1ccc(Cl)cc1`, the IC50 entry at PEG-3 [1] was “inactive”. Also, the IC50 came out at 30.7 µM in the assay with PEG-3 [2] (setting [3]) and 19.3 µM in the assay on PEG-3 [2] (setting [4]).

As to `Cc1cc(C=C2C(=O)c3ccccc3C2=O)c(C)n1-c1ccccc1`, the IC50 result on PEG-3 [1] was “inactive”. The IC50 with PEG-3 [2] (setting [3]) is 39.6 µM; in the assay on PEG-3 [2] (setting [4]), over 100 µM.

With `CC1(C)Oc2cc3oc(-c4cc(O)cc(O)c4)cc3cc2CC1O` (stereo not drawn), the IC50 result on PEG-3 [1] was “inactive”. Also, the IC50 in the assay with PEG-3 [2] (setting [3]) was determined as 37.1 µM; in the assay with PEG-3 [2] (setting [4]) it was 13.7 µM.

Regarding `CCCCn1nnnc1C(CCSC)N1CCC(n2c(=O)[nH]c3ccccc32)CC1` (stereo not drawn), on PEG-3 [1], the IC50 result is “inactive”. Further, the IC50 with PEG-3 [2] (setting [3]) is 34.4 µM; with PEG-3 [2] (setting [4]), 70.3 µM.

`Cc1ccc2sc(N(CCCN(C)C)C(=O)c3ccc(S(=O)(=O)N(C)C4CCCCC4)cc3)nc2c1C`: the half-inhibitory concentration (IC50) on PEG-3 [1] is 17.2 µM; with PEG-3 [2] (setting [3]) it was 20.7 µM; with PEG-3 [2] (setting [4]) it was 13.7 µM.

In the case of `COc1ccc(/C=C/C(=O)c2ccc3c(c2)OCCO3)cc1[N+](=O)[O-]`, the figures for the concentration for half-maximal inhibition (IC50) at PEG-3 [1], with PEG-3 [2] (setting [3]) and in the assay on PEG-3 [2] (setting [4]) were 17 µM, 17.2 µM and 16.7 µM, respectively.

Turning to `CC(C)c1ccc(-c2nc3ccccc3s2)cc1`, the IC50 entry on PEG-3 [1] was “inactive”. For the same molecule, the IC50 with PEG-3 [2] (setting [3]) is 14 µM; in the assay with PEG-3 [2] (setting [4]) it was 40.2 µM.

For `COc1ccc(-n2c(/C=C/c3ccc(O)c(OC)c3)nc3ccccc3c2=O)cc1`, the half-inhibitory concentration (IC50) on PEG-3 [1], in the assay on PEG-3 [2] (setting [3]) and in the assay on PEG-3 [2] (setting [4]) was 15.8 µM throughout.

On to `CCOC(=O)C1CCN(c2cc3c(cc2NC(=O)c2ccccc2OCC)n(C)c(=O)n3C)CC1`, for which, at PEG-3 [1], the IC50 result is “inactive”. Moreover, the IC50 in the assay on PEG-3 [2] (setting [3]) was 35.7 µM; with PEG-3 [2] (setting [4]), over 100 µM.

For the molecule `COC(=O)c1ccc(Nc2cc(C)nc3ccc(C)cc23)cc1`, the values for the IC50 on PEG-3 [1], with PEG-3 [2] (setting [3]) and in the assay on PEG-3 [2] (setting [4]) were 13.6 µM, 17.9 µM and 9.4 µM, respectively.

Consider `CCCc1cc(=O)n2[nH]c(C)c(-c3ccc(Cl)cc3)c2n1`, for which the IC50 on PEG-3 [1] is 12.9 µM; in the assay on PEG-3 [2] (setting [3]), 14 µM; in the assay on PEG-3 [2] (setting [4]) it was 11.8 µM.

As for `CCOC(=O)c1c(NC(=O)COc2ccccc2F)sc2c1CC(C)(C)NC2(C)C`, the IC50 result at PEG-3 [1] was “inactive”. For the same molecule, the figures for the half-maximal inhibitory concentration (IC50) in the assay on PEG-3 [2] (setting [3]) and in the assay with PEG-3 [2] (setting [4]) were 17.6 µM and 35 µM, respectively.

`COc1cccc(C(=O)c2sc(NC(C)C)nc2N)c1`: the figures for the IC50 on PEG-3 [1], with PEG-3 [2] (setting [3]) and in the assay on PEG-3 [2] (setting [4]) were 15 µM, 16.5 µM and 13.6 µM, respectively.

On to `C[C@@]12C(=O)Nc3cc(Cl)ccc3C(=O)N1[C@H]1c3cc(Cl)ccc3OC[C@@H]1[C@@H]2c1ccccc1`, for which the IC50 on PEG-3 [1] is 11.5 µM; in the assay on PEG-3 [2] (setting [3]), 16.3 µM; in the assay with PEG-3 [2] (setting [4]) it was 6.77 µM.

With `Cc1ccc(S(=O)(=O)N(C)C)cc1NC(=O)c1cncc(Br)c1`, at PEG-3 [1], the IC50 result is “inactive”. The IC50 stood at 47.7 µM with PEG-3 [2] (setting [3]) and 8.59 µM in the assay with PEG-3 [2] (setting [4]).

On to `COc1ccccc1N1CCN(C(=O)c2sc3ncnc(N4CCN(c5ccccn5)CC4)c3c2C)CC1`, for which, on PEG-3 [1], the IC50 result is “inactive”. Besides, the 50% inhibitory concentration (IC50) was found to be 27.6 µM in the assay with PEG-3 [2] (setting [3]) and 19.7 µM with PEG-3 [2] (setting [4]).

In the case of `NC(N)=N/N=C/c1ccc(Cl)cc1Cl`, on PEG-3 [1], the IC50 entry is “inactive”. Also, the IC50 with PEG-3 [2] (setting [3]) is 23.6 µM; in the assay with PEG-3 [2] (setting [4]), 17.6 µM.

Regarding `N#Cc1c(N)nc(SCc2ccncc2)c(C#N)c1-c1cccs1`, the figures for the IC50 on PEG-3 [1], with PEG-3 [2] (setting [3]) and with PEG-3 [2] (setting [4]) were 17.1 µM, 21.4 µM and 12.8 µM, respectively.

Regarding `CC(C)(C)c1ccc(OCCCNCc2ccccc2)cc1`, the IC50 entry on PEG-3 [1] is “inactive”. Further, the IC50 in the assay on PEG-3 [2] (setting [3]) worked out at 28.8 µM; in the assay with PEG-3 [2] (setting [4]) it was 18.3 µM.

As to `CC1(C)Cc2c(C#N)c(N3CCNCC3)nc(-c3ccco3)c2CS1`, the IC50 at PEG-3 [1] is 19.9 µM; in the assay on PEG-3 [2] (setting [3]) it was 22.7 µM; with PEG-3 [2] (setting [4]) it was 17.2 µM.

In the case of `CC(=O)NC(c1ccc(C)cc1)c1cc(Cl)c2cccnc2c1O` (stereo not drawn), the IC50 result at PEG-3 [1] was “inactive”. The IC50 in the assay on PEG-3 [2] (setting [3]) was 3.25 µM; in the assay on PEG-3 [2] (setting [4]), over 100 µM.

Take `O=C1NC(=O)N(Cc2ccccc2)C(=O)/C1=C\C=C\c1ccco1`: the IC50 at PEG-3 [1] was 13.5 µM; in the assay on PEG-3 [2] (setting [3]), 15.1 µM; in the assay with PEG-3 [2] (setting [4]), 12 µM.

As for `CC[C@@H](O)C[C@H]1CCC[C@@]2(C[C@@H]3OC(=O)/C=C/[C@@](C)(O)[C@@H](O)[C@H](C)[C@@H](O)[C@H](OC4CCC(N(C)C)C(C)O4)[C@@H](O)[C@](C)(O)CCCCC/C=C/[C@@H]4CC(C)(C)O[C@@]4(O)C[C@H](O2)[C@H]3C)O1` (stereo partly drawn), the values for the IC50 at PEG-3 [1], with PEG-3 [2] (setting [3]) and with PEG-3 [2] (setting [4]) were 15.8 µM, 18.2 µM and 13.4 µM, respectively.

Regarding `O=C1c2ccccc2C(=O)C12OC2c1ccc(Cl)cc1Cl` (stereo not drawn), the IC50 result on PEG-3 [1] is “inactive”. Moreover, the values for the IC50 in the assay on PEG-3 [2] (setting [3]) and in the assay on PEG-3 [2] (setting [4]) were 28.4 µM and 14.6 µM, respectively.

In the case of `CC1CCCCN1CCNC(=O)c1ccc2c(=O)n(Cc3ccc(Cl)cc3)c(=S)[nH]c2c1` (stereo not drawn), on PEG-3 [1], the IC50 entry is “inactive”. For the same molecule, the IC50 with PEG-3 [2] (setting [3]) turned out to be 19.6 µM; in the assay on PEG-3 [2] (setting [4]), 25.3 µM.

In the case of `CC1(C(=O)NCc2cccc3ccccc23)CCN1C(=O)Cc1ccc(-c2ccccc2)cc1` (stereo not drawn), at PEG-3 [1], the IC50 entry is “inactive”. Moreover, the IC50 with PEG-3 [2] (setting [3]) is 10.3 µM; in the assay with PEG-3 [2] (setting [4]), over 100 µM.

These data come from PubChem BioAssay AID624167 (Sanford-Burnham Center for Chemical Genomics, 2012).
